Reference: patent US12174189B2, “Diagnostic, prognostic, and monitoring methods for chronic lymphocytic leukemia” (INSTITUTE FOR MYELOMA & BONE CANCER RESEARCH, priority 2013, dated 2024)
Entries after “also recorded” stand apart in the source; their conditions may differ.

Tested on: LAGλ-1 tumor
Assay: LAGλ-1 human MM xenograft in SCID mice
Type: in vivo, CB17 SCID mice
Settings: melphalan 3 mg/kg twice weekly i.p., vs untreated mice
Text: Serum human BCMA levels also correlated with tumor growth, IgG levels and response to treatment in mice bearing another human MM xenograft, LAGλ-1. Untreated mice (n=4) had large tumor volumes and high serum IgG and BCMA levels. […] Human BCMA was not detected in the serum of non-tumor bearing SCID mice (data not shown).

For `N[C@@H](Cc1ccc(N(CCCl)CCCl)cc1)C(=O)O` [melphalan, Melphalan], the tumor volumes (P<0.0001) was “smaller; also recorded: small tumor volumes”, the “serum IgG levels” value (P=0.0033) was “smaller; also recorded: significantly reduced” and the “serum human BCMA levels” value (P=0.0055) was “smaller; also recorded: significantly reduced”.
